In the supplement of paper PMC13380429:

Experiments:
Settings in all cases: 72 h
Caco-2 [1] = experiment: cell viability relative to DMSO; higher = less toxic
Calu-3 [2] = experiment: as above
HepG2 [3] = experiment: as above
U2OS [4] = experiment: as above
Vero E6 [5] = experiment: as above
Caco-2 [6] = experiment: relative viability EC50 (midpoint between 100% and the lowest measured viability); higher = less toxic
Calu-3 [7] = experiment: as above
HepG2 [8] = experiment: as above
U2OS [9] = experiment: as above
Vero E6 [10] = experiment: as above
Caco-2 [11] = experiment: drug sensitivity score (DSS) for viability; higher = more toxic; extreme values may be limits of the assay
Calu-3 [12] = experiment: as above
HepG2 [13] = experiment: as above
U2OS [14] = experiment: as above
Vero E6 [15] = experiment: as above

Cc1cc(C(=O)N2Cc3cnn(C)c3Nc3ccccc32)ccc1CNC(=O)N1CCC[C@H]1C(=S)N1CCCN(C)CC1 [TC-OT-39]
cell viability (Caco-2 [1]; 1 nM): 99.8%
cell viability (Caco-2 [1]; 10 nM): 92.2%
cell viability (Caco-2 [1]; 100 nM): 98.7%
cell viability (Caco-2 [1]; 1000 nM): 106%
cell viability (Caco-2 [1]; 10000 nM): 100%
cell viability (Calu-3 [2]; 1 nM): 98.1%
cell viability (Calu-3 [2]; 10 nM): 84.4%
cell viability (Calu-3 [2]; 100 nM): 105%
cell viability (Calu-3 [2]; 1000 nM): 97.9%
cell viability (Calu-3 [2]; 10000 nM): 90%
cell viability (HepG2 [3]; 1 nM): 100%
cell viability (HepG2 [3]; 10 nM): 90.3%
cell viability (HepG2 [3]; 100 nM): 97%
cell viability (HepG2 [3]; 1000 nM): 104%
cell viability (HepG2 [3]; 10000 nM): 96.8%
cell viability (U2OS [4]; 1 nM): 97.7%
cell viability (U2OS [4]; 10 nM): 100%
cell viability (U2OS [4]; 100 nM): 106%
cell viability (U2OS [4]; 1000 nM): 98%
cell viability (U2OS [4]; 10000 nM): 101%
cell viability (Vero E6 [5]; 1 nM): 95.3%
cell viability (Vero E6 [5]; 10 nM): 98.6%
cell viability (Vero E6 [5]; 100 nM): 94.4%
cell viability (Vero E6 [5]; 1000 nM): 97.5%
cell viability (Vero E6 [5]; 10000 nM): 102%
relative viability EC50 (Caco-2 [6]): > 10 µM
relative viability EC50 (Calu-3 [7]): > 10 µM
relative viability EC50 (HepG2 [8]): > 10 µM
relative viability EC50 (U2OS [9]): > 10 µM
relative viability EC50 (Vero E6 [10]): > 10 µM
drug sensitivity score (Caco-2 [11]): 0
drug sensitivity score (Calu-3 [12]): 0
drug sensitivity score (HepG2 [13]): 0
drug sensitivity score (U2OS [14]): 0
drug sensitivity score (Vero E6 [15]): 0

CCn1c(=O)[nH]c2ccccc21 [1-EBIO]
cell viability (Caco-2 [1]; 1 nM): 94.4%
cell viability (Caco-2 [1]; 10 nM): 93.5%
cell viability (Caco-2 [1]; 100 nM): 98%
cell viability (Caco-2 [1]; 1000 nM): 100%
cell viability (Caco-2 [1]; 10000 nM): 91%
cell viability (Calu-3 [2]; 1 nM): 99.1%
cell viability (Calu-3 [2]; 10 nM): 105%
cell viability (Calu-3 [2]; 100 nM): 104%
cell viability (Calu-3 [2]; 1000 nM): 106%
cell viability (Calu-3 [2]; 10000 nM): 81.8%
cell viability (HepG2 [3]; 1 nM): 96.7%
cell viability (HepG2 [3]; 10 nM): 98.6%
cell viability (HepG2 [3]; 100 nM): 91.4%
cell viability (HepG2 [3]; 1000 nM): 84%
cell viability (HepG2 [3]; 10000 nM): 110%
cell viability (U2OS [4]; 1 nM): 95.7%
cell viability (U2OS [4]; 10 nM): 94.3%
cell viability (U2OS [4]; 100 nM): 104%
cell viability (U2OS [4]; 1000 nM): 98.4%
cell viability (U2OS [4]; 10000 nM): 93.2%
cell viability (Vero E6 [5]; 1 nM): 97.4%
cell viability (Vero E6 [5]; 10 nM): 97.5%
cell viability (Vero E6 [5]; 100 nM): 89.7%
cell viability (Vero E6 [5]; 1000 nM): 98.2%
cell viability (Vero E6 [5]; 10000 nM): 104%
relative viability EC50 (Caco-2 [6]): > 10 µM
relative viability EC50 (Calu-3 [7]): > 10 µM
relative viability EC50 (HepG2 [8]): > 10 µM
relative viability EC50 (U2OS [9]): > 10 µM
relative viability EC50 (Vero E6 [10]): > 10 µM
drug sensitivity score (Caco-2 [11]): 0
drug sensitivity score (Calu-3 [12]): 0.3
drug sensitivity score (HepG2 [13]): 0
drug sensitivity score (U2OS [14]): 0
drug sensitivity score (Vero E6 [15]): 0

Oc1ccc(C(O)CNCCCCCCNCC(O)c2ccc(O)c(O)c2)cc1O (stereo not given) [hexoprenaline]
cell viability (Caco-2 [1]; 1 nM): 97.3%
cell viability (Caco-2 [1]; 10 nM): 102%
cell viability (Caco-2 [1]; 100 nM): 93.7%
cell viability (Caco-2 [1]; 1000 nM): 95.9%
cell viability (Caco-2 [1]; 10000 nM): 88.3%
cell viability (Calu-3 [2]; 1 nM): 95.8%
cell viability (Calu-3 [2]; 10 nM): 97.9%
cell viability (Calu-3 [2]; 100 nM): 99.7%
cell viability (Calu-3 [2]; 1000 nM): 97.9%
cell viability (Calu-3 [2]; 10000 nM): 100%
cell viability (HepG2 [3]; 1 nM): 103%
cell viability (HepG2 [3]; 10 nM): 104%
cell viability (HepG2 [3]; 100 nM): 110%
cell viability (HepG2 [3]; 1000 nM): 93.2%
cell viability (HepG2 [3]; 10000 nM): 103%
cell viability (U2OS [4]; 1 nM): 102%
cell viability (U2OS [4]; 10 nM): 97.6%
cell viability (U2OS [4]; 100 nM): 95.4%
cell viability (U2OS [4]; 1000 nM): 102%
cell viability (U2OS [4]; 10000 nM): 95%
cell viability (Vero E6 [5]; 1 nM): 103%
cell viability (Vero E6 [5]; 10 nM): 109%
cell viability (Vero E6 [5]; 100 nM): 99.2%
cell viability (Vero E6 [5]; 1000 nM): 101%
cell viability (Vero E6 [5]; 10000 nM): 98.7%
relative viability EC50 (Caco-2 [6]): > 10 µM
relative viability EC50 (Calu-3 [7]): > 10 µM
relative viability EC50 (HepG2 [8]): > 10 µM
relative viability EC50 (U2OS [9]): > 10 µM
relative viability EC50 (Vero E6 [10]): > 10 µM
drug sensitivity score (Caco-2 [11]): 0
drug sensitivity score (Calu-3 [12]): 0
drug sensitivity score (HepG2 [13]): 0
drug sensitivity score (U2OS [14]): 0
drug sensitivity score (Vero E6 [15]): 0

N=C(N)NCCSSCCNC(=N)N [guanidinoethyldisulfide-bicarbonate]
cell viability (Caco-2 [1]; 1 nM): 101%
cell viability (Caco-2 [1]; 10 nM): 87.2%
cell viability (Caco-2 [1]; 100 nM): 93.6%
cell viability (Caco-2 [1]; 1000 nM): 101%
cell viability (Caco-2 [1]; 10000 nM): 91.8%
cell viability (Calu-3 [2]; 1 nM): 99.7%
cell viability (Calu-3 [2]; 10 nM): 106%
cell viability (Calu-3 [2]; 100 nM): 99.9%
cell viability (Calu-3 [2]; 1000 nM): 98.6%
cell viability (Calu-3 [2]; 10000 nM): 108%
cell viability (HepG2 [3]; 1 nM): 93%
cell viability (HepG2 [3]; 10 nM): 101%
cell viability (HepG2 [3]; 100 nM): 96.4%
cell viability (HepG2 [3]; 1000 nM): 97.9%
cell viability (HepG2 [3]; 10000 nM): 93%
cell viability (U2OS [4]; 1 nM): 106%
cell viability (U2OS [4]; 10 nM): 96.8%
cell viability (U2OS [4]; 100 nM): 100%
cell viability (U2OS [4]; 1000 nM): 96.8%
cell viability (U2OS [4]; 10000 nM): 102%
cell viability (Vero E6 [5]; 1 nM): 97.5%
cell viability (Vero E6 [5]; 10 nM): 96.3%
cell viability (Vero E6 [5]; 100 nM): 102%
cell viability (Vero E6 [5]; 1000 nM): 96.2%
cell viability (Vero E6 [5]; 10000 nM): 91.4%
relative viability EC50 (Caco-2 [6]): > 10 µM
relative viability EC50 (Calu-3 [7]): > 10 µM
relative viability EC50 (HepG2 [8]): > 10 µM
relative viability EC50 (U2OS [9]): > 10 µM
relative viability EC50 (Vero E6 [10]): > 10 µM
drug sensitivity score (Caco-2 [11]): 0
drug sensitivity score (Calu-3 [12]): 0
drug sensitivity score (HepG2 [13]): 0
drug sensitivity score (U2OS [14]): 0
drug sensitivity score (Vero E6 [15]): 0
